Tests used:
[1] = system: cortical neurons
Description: Treatment with 1 μM PD 0332991 (obtained from Pfizer) was carried out for 12 h in complete medium; H2O2 was added at the indicated times and doses.
Analysis of neuronal survival and apoptosis. Neuronal viability was assessed by quantifying apoptotic nuclei following the treatments. Cells were fixed and stained with DNA-binding dye propidium iodide (PI) (10 μg/ml; Sigma), and the percentage of cells with apoptotic nuclei was calculated as described previously (Kruman, I. I., et al. 2002. J. Neurosci. 22:1752-1762; Tenneti, L. and S. A. Lipton. 2000. J Neurochem. 74:134-142). Nuclear staining was viewed and photographed using a Zeiss fluorescence microscope. Apoptosis was also determined by immunoblot analysis for activated (cleaved) caspase-3 (polyclonal; 1 μg/ml; Upstate Cell Signaling Solutions), cleaved Mcm3 (polyclonal, 1:200; Santa-Cruz), Mcm2 (BM28; monoclonal; 1:200; BD Biosciences), and fractin (cleaved β-actin; 1:3000; Chemicon) in cellular extracts from corresponding neuronal 5 cultures.

[2] = system: cortical neurons; conditions: 5 μM H2O2, 6 h; neutral comet assay; FIG. 2A
Description: Single Cell Gel Electrophoresis (Comet assay). DNA damage was assessed using the alkaline or neutral single-cell gel electrophoresis (comet assay) method (Kruman, I. I., et al. 2004. Neuron. 41:549-561; Kruman, I. I., et al. 2002. J Neurosci. 22:1752-176229). We used the neutral comet assay which is specific for detecting DSBs (Wojewodzka, M., et al. 2002. Mutat Res. 518:9-20). Following treatment, neurons were scraped and cell suspensions (˜10,000 cells) were embedded into 0.5% low melting agarose on slides (Trevigen, Gaithersburg, Md.). After treatment with cold lysis buffer (Trevigen) containing 1% Triton X-100 and 10% DMSO, the slides were incubated for 1 h in freshly prepared electrophoresis buffer, 300 mM sodium acetate, 100 mM Tris HCl, pH 8.3 (neutral comet assay) or 300 mM NaOH, 1 mM EDTA, pH>13 (alkaline comet assay). Then electrophoresis was performed at 14V and 60 mA for 1 h (neutral comet assay) or at 25V and 300 mA for 30 min (alkaline comet assay) at 8° C., stained with SYBR green (Trevigen), and analyzed using an Olympus BX51 fluorescent microscope and the comet assay image analysis software (Loats Associates Inc.). […] Images of 50 randomly selected cells were analysed from each slide. […]

[3] = system: tumor; conditions: mice; cited from earlier work
[4] = system: primary cortical neurons; assay: H2O2-induced apoptosis in cultured cortical neurons (apoptotic nuclei count); format: cell-based, rat; conditions: 12 h pretreatment with 1 μM PD 0332991, then 100 μM H2O2 for 18 h; Hoechst 33342; FIG. 4B
Description: All experiments involving the use of animals were approved by the IACUC at the Georgetown University Medical Center, Washington, D.C. Primary cortical cell cultures were established from E18 Sprague-Dawley rats obtained from Jackson Laboratories.
Following dissociation by mild trypsinization and trituration, cells were seeded onto plastic dishes or chamber slides precoated with 0.025 μg/ml poly-L-lysine, at a density of 1.3×10^3 neurons/mm^2 in Neurobasal medium containing B-27 supplement, 1 mM HEPES, 2 mM […] and 0.001% gentamycin sulfate; fresh medium was replaced after 30 minutes.
Analysis of neuronal survival and apoptosis.

[5] = system: CDK4 and CDK6; conditions: Fry et al. 2004; cited from earlier work
[6] = system: pRb phosphorylation; assay: pRb phosphorylation by Western blot in cortical neurons; format: cell-based, rat; conditions: 12 h pretreatment with 1 μM PD 0332991, then 100 μM H2O2 for 6 h; FIG. 4A
Description: Immunoblot analyses. For total cell lysates, cortical neurons were lysed in ice-cold buffer consisting of 63 mM Tris, 2 mM EDTA, 2 mM EGTA, 2% sodium dodecyl sulfate, 10% glycerol, and a protease inhibitor cocktail (Sigma), pH 6.0. For the preparation of nuclear lysates (for analysis of cyclin D1 and γ-H2AX), cortical neurons were lysed in ice-cold buffer containing protease inhibitor cocktail (Sigma) and incubated with hydrochloric acid (0.2 M) on ice for 30 min.
As a loading control we used anti-β-actin or anti-glyceraldehyde-3-phosphate dehydrogenase (GAPDH) antibodies.
Protein bands were visualized with horseradish peroxidase-conjugated secondary antibodies (1:3000; Jackson Immunological Research Laboratories Inc.) and enhanced using chemiluminescence (ECL kit, Amersham Corp.). Densitometric analysis of the blots were performed using the Kodak software ID 3.5.3 USB, and the intensity of the signal (normalized to the β-actin signals) was expressed as a ratio of the control signals.

[7] = system: ischemia models; conditions: in vivo; cited from earlier work
[8] = system: neuronal apoptosis; conditions: in vitro; cited from earlier work

## OO [H2O2, hydrogen peroxide]
[1]; 5 μM H2O2, by 24 h or 48 h
  apoptosis of cortical neurons: did not induce apoptosis
[1]; 100 μM H2O2, FIG. 1
  apoptotic death of cortical neurons: significant apoptotic death beginning by 9 h
[2]
  DNA damage (comet tails): significant increase of DNA damage

## CC(=O)c1c(C)c2cnc(Nc3ccc(N4CCNCC4)cn3)nc2n(C2CCCC2)c1=O [PD 0332991]
[3]
  tumor regression: effective in causing tumor regression in mice
[4]
  extent of apoptosis: significant reduction in the extent of apoptosis
[5]
  specificity as inhibitor of CDK4 and CDK6: highly specific inhibitor of CDK4 and CDK6
[6]
  phosphorylation of pRb: down-regulates phosphorylation of pRb

## CN1CC[C@H](c2c(O)cc(O)c3c(=O)cc(-c4ccccc4Cl)oc23)[C@H](O)C1 [flavopiridol]
[7]
  protection in ischemia models: protective
[8]
  prevention of neuronal apoptosis: very potent in preventing neuronal apoptosis in vitro

From US20080182853A1, “Methods of neuroprotection by cyclin-dependent kinase inhibition” (priority 2006, published 2008)
